From patent US20130109049A1, “Method of Establishing a Fungal Nail Infection” (NOVABIOTICS LIMITED, priority 2009, published 2013)

Columns and labels:
[1] = test system: Candida; assay: Ex vivo human nail fragment model, treatment of Candida infection; format: cell-based; conditions: Experiments 6 and 7; 10% (w/v); 14 d or 28 d, daily
Description: Trichophyton rubrum strain NCPF0118 was obtained from the National Collection of Pathogenic Fungi, Bristol, UK. Clinical isolates of T. rubrum DM2006 1661, T. rubrum DM2006 1358, T. mentagrophytes DM2006 1503, T. mentagrophytes DM2006 1498 were isolated from patients suffering a range of tinea infections and were purchased from Professor Michel Monod (Service de Dermatologie, Université de Lausanne, Switzerland). Clinical isolates of Candida samples were also obtained from patients suffering from Candidal infection.
The procedure was carried out as described for Example 1 above with modifications to the vehicle, and fungal strains used. Each nail was inoculated with 10 μl of a spore suspension of Candida. Following inoculation the nails were treated with 10% (w/v) Novexatin® (NP213) in a vehicle solution of 50% (w/v) PEG 8000 plus 20% (w/v) urea; 10% (w/v) NP339 in a vehicle solution of 50% (w/v) PEG 8000 plus 20% (w/v) urea; 10% (w/v) NP339 in a vehicle solution of water; a control solution of 50% (w/v) PEG 8000 plus 20% (w/v) urea; a control solution of water; a solution of 16 μg/ml Itraconazole® and 1.6% (w/v) DMSO in a vehicle solution of water and a control solution of 1.6% (w/v) DMSO. As for Experiment 1 above, nail fragments were treated daily for up to 28 days. […]
At the end of the treatment period, the nail fragments were placed in sterile 2 ml microcentrifuge tubes containing 450 μl of a suspension broth consisting of Sabouraud's Liquid Medium, pH 5.6, containing approximately 100 mg of sterile zirconia beads (0.5 mm diameter). […] Colonies were counted on dishes that contained between 20 and 200 colonies in total, and the total number of cfu present in each sample was calculated. […] The counts were corrected for the surface area of the nails studied to give cfu/cm^2, transformed to log10 and means and standard errors of the mean were calculated using GraphPad Prism 4 (GraphPad, San Diego, Calif.). […] When very low numbers of colonies were detected, as in Experiment 3, the calculated cfu values are shown in order to indicate trends.

[2] = test system: T. rubrum NCPF0118; assay: In vitro MIC100 testing; format: cell-based, Trichophyton rubrum; conditions: versus T. rubrum NCPF0118; revealed in separate tests
[3] = test system: four clinical isolates of Trichophyton spp.; assay: In vitro MIC testing of clinical isolates; format: cell-based
Description: However, this difference in activity is not reflected in human nail tissue, which should be considered a more appropriate model for activity testing for antimicrobials of this type.

Question: “7 to 200-mer (SEQ ID NO: 3) polyarginine [Novexatin® (NP213)]” was tested. Which “recoverable fungal growth after treatment” value [1] did it give?
Answer: no recoverable fungal growth

Question: And the “concentration equal to 100× the MIC100” value [2]?
Answer: ~10 % (w/v)

Question: And the “susceptibility of clinical isolates compared to T. rubrum NCPF0118” value [3]?
Answer: less susceptible
